Laboratory results from patent publication US10131652B2, “Pyrimidinyloxy benzene derivatives as herbicides” (E. I. DU PONT DE NEMOURS AND COMPANY, priority 2014, dated 2018).

Tests used:
Format in all cases: in vivo
[1] = test system: barnyardgrass (Echinochloa crus-galli); assay: Test C flooded paddy test plant response; conditions: Flood, 250 g ai/ha; scale of 0 to 100 where 0 is no effect and 100 is complete control; 13 to 15 days
How it was run: (§1)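 Visual injury ratings (0, no effect; 100, complete control) were assigned after 13 to 15 days in a greenhouse, comparing treated plants with controls. Compounds had been added straight into paddy water over 2-leaf-stage plants flooded to 3 cm.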

rice (Oryza sativa) = assay: Test C flooded paddy test plant response; conditions: Flood, 250 g ai/ha; scale of 0 to 100 where 0 is no effect and 100 is complete control; 13 to 15 days
How it was run: as §1

[2] = test system: ducksalad (Heteranthera limosa); assay: Test C flooded paddy test plant response; conditions: Flood, 250 g ai/ha; scale of 0 to 100 where 0 is no effect and 100 is complete control; 13 to 15 days
How it was run: as §1

[3] = test system: small-flower umbrella sedge (Cyperus difformis); assay: Test C flooded paddy test plant response; conditions: Flood, 250 g ai/ha; scale of 0 to 100 where 0 is no effect and 100 is complete control; 13 to 15 days
How it was run: as §1

[4] = test system: blackgrass (Alopecurus myosuroides); assay: Test B postemergence plant response
How it was run: (§2)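 Visual injury ratings, 0 = no effect to 100 = complete control, versus untreated controls approximately 10 days after postemergence spraying in greenhouse. Plants were at one- to two-leaf stage, 2 to 10 cm tall, in loam soil/sand blend; a dash denotes no result.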

[5] = test system: galium (catchweed bedstraw, Galium aparine); assay: Test B postemergence plant response
How it was run: as §2

[6] = test system: pigweed (Amaranthus retroflexus); assay: Test B pre-/postemergence plant response
How it was run: (§3)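 Visual injury scores on a 0–100 scale (100 = complete control) relative to untreated plants, taken about 10 days post-treatment in greenhouse. Treatments were a directed preemergence soil spray and a postemergence spray at one- to two-leaf stage, using surfactant-containing solvent formulation.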

[7] = test system: barnyardgrass (Echinochloa crus-galli); assay: Test B pre-/postemergence plant response
How it was run: as §3

[8] = test system: ragweed (common ragweed, Ambrosia elatior); assay: Test B pre-/postemergence plant response
How it was run: as §3

[9] = test system: giant foxtail (Setaria faberii); assay: Test B pre-/postemergence plant response
How it was run: as §3

kochia (Kochia scoparia) = assay: Test B pre-/postemergence plant response
How it was run: as §3

[10] = test system: Italian ryegrass (Lolium multiflorum); assay: Test B pre-/postemergence plant response
How it was run: as §3

corn (Zea mays) = assay: Test B pre-/postemergence plant response
How it was run: as §3

[11] = test system: wheat (Triticum aestivum); assay: Test B pre-/postemergence plant response
How it was run: as §3

[12] = 125 g ai/ha, postemergence, 0 to 100 scale, 0 no effect, 100 complete control
[13] = Postemergence, 31 g ai/ha, 0 to 100 scale (0 no effect, 100 complete control)
[14] = 31 g ai/ha, Preemergence, 0 to 100 scale where 0 is no effect and 100 is complete control
[15] = Preemergence, 125 g ai/ha, 0 to 100 scale (0 no effect, 100 complete control)
[16] = Postemergence, 500 g ai/ha, 0 to 100 scale (0 no effect, 100 complete control)
[17] = Preemergence, 500 g ai/ha, 0 to 100 scale where 0 is no effect and 100 is complete control

SMILES | Barnyardgrass plant response rating [1] | Rice plant response rating (rice (Oryza sativa)) | Ducksalad plant response rating [2] | Sedge, Umbrella plant response rating [3] | Plant response rating, Blackgrass [4, 12] | Plant response rating, Galium [5, 12] | Plant response rating, Pigweed [6, 12] | Pigweed plant response rating [6, 15] | Plant response rating, Barnyardgrass [7, 12] | Barnyardgrass plant response rating [7, 15] | Plant response rating, Ragweed [8, 12] | Ragweed plant response rating [8, 15] | Plant response rating, Foxtail, Giant [9, 12] | Foxtail, Giant plant response rating [9, 15] | Plant response rating, Kochia (kochia (Kochia scoparia); [12]) | Kochia plant response rating (kochia (Kochia scoparia); [15]) | Plant response rating, Ryegrass, Italian [10, 12] | Ryegrass, Italian plant response rating [10, 15] | Plant response rating, Corn (corn (Zea mays); [12]) | Plant response rating, Wheat [11, 12] | also measured
Cn1nc(-c2c(C#N)cccc2Oc2ncc(Cl)cn2)cc1C(F)(F)F [Compound 146] | 0 | 0 | 0 | 0 | 30 | 50 | 60 | 70 | 20 | 30 | 0 | 0 | 20 | 20 | 60 | 0 | 0 | 0 | 0 | 0 | Plant response rating, Blackgrass [4, 13]: 0; Plant response rating, Galium [5, 13]: 30; Plant response rating, Pigweed [6, 14]: 0; Plant response rating, Pigweed [6, 13]: 30; Plant response rating, Barnyardgrass [7, 14]: 0; Plant response rating, Barnyardgrass [7, 13]: 0; Plant response rating, Ragweed [8, 14]: 0; Plant response rating, Ragweed [8, 13]: 0; Plant response rating, Foxtail, Giant [9, 14]: 0; Plant response rating, Foxtail, Giant [9, 13]: 0; Plant response rating, Kochia (kochia (Kochia scoparia); [14]): 0; Plant response rating, Kochia (kochia (Kochia scoparia); [13]): 50; Plant response rating, Ryegrass, Italian [10, 14]: 0; Plant response rating, Ryegrass, Italian [10, 13]: 0; Plant response rating, Corn (corn (Zea mays); [13]): 0; Plant response rating, Wheat [11, 13]: 0
Cn1nc(-c2c(Br)cccc2Oc2ncc(Cl)cn2)cc1C(F)(F)F [Compound 147] | 0 | 0 | 0 | 0 | 0 | 0 | 0 | 0 | 0 | 0 | 0 | 0 | 0 | 0 | 0 | 0 | 0 | 0 | 0 | 0 | Plant response rating, Blackgrass [4, 13]: 0; Plant response rating, Galium [5, 13]: 0; Plant response rating, Pigweed [6, 14]: 0; Plant response rating, Pigweed [6, 13]: 0; Plant response rating, Barnyardgrass [7, 14]: 0; Plant response rating, Barnyardgrass [7, 13]: 0; Plant response rating, Ragweed [8, 14]: 0; Plant response rating, Ragweed [8, 13]: 0; Plant response rating, Foxtail, Giant [9, 14]: 0; Plant response rating, Foxtail, Giant [9, 13]: 0; Plant response rating, Kochia (kochia (Kochia scoparia); [14]): 0; Plant response rating, Kochia (kochia (Kochia scoparia); [13]): 0; Plant response rating, Ryegrass, Italian [10, 14]: 0; Plant response rating, Ryegrass, Italian [10, 13]: 0; Plant response rating, Corn (corn (Zea mays); [13]): 0; Plant response rating, Wheat [11, 13]: 0
CC(=O)c1cc(-c2ccccc2Oc2ncc(Br)cn2)no1 [Compound 150] | 0 | 0 | 0 | 0 | 10 | 10 | 20 | 20 | 20 | 20 | 0 | 0 | 10 | 20 | 0 | 0 | 0 | 0 | 10 | 0 | Plant response rating, Blackgrass [4, 13]: 0; Plant response rating, Galium [5, 13]: 0; Plant response rating, Pigweed [6, 14]: 0; Plant response rating, Pigweed [6, 13]: 10; Plant response rating, Barnyardgrass [7, 14]: 0; Plant response rating, Barnyardgrass [7, 13]: 0; Plant response rating, Ragweed [8, 14]: 0; Plant response rating, Ragweed [8, 13]: 0; Plant response rating, Foxtail, Giant [9, 14]: 0; Plant response rating, Foxtail, Giant [9, 13]: 0; Plant response rating, Kochia (kochia (Kochia scoparia); [14]): 0; Plant response rating, Kochia (kochia (Kochia scoparia); [13]): 0; Plant response rating, Ryegrass, Italian [10, 14]: 0; Plant response rating, Ryegrass, Italian [10, 13]: 0; Plant response rating, Corn (corn (Zea mays); [13]): 0; Plant response rating, Wheat [11, 13]: 0
Cn1ccnc1-c1ccccc1Oc1ncc(Cl)cn1 [Compound 151] | 0 | 0 | 0 | 0 | 0 | 0 | 0 | 0 | 0 | 0 | 0 | 0 | 0 | 0 | 0 | 0 | 0 | 0 | 0 | 0 | Plant response rating, Blackgrass [4, 16]: 0; Plant response rating, Galium [5, 16]: 0; Plant response rating, Pigweed [6, 16]: 0; Plant response rating, Pigweed [6, 17]: 0; Plant response rating, Barnyardgrass [7, 16]: 0; Plant response rating, Barnyardgrass [7, 17]: 0; Plant response rating, Ragweed [8, 16]: 0; Plant response rating, Ragweed [8, 17]: 0; Plant response rating, Foxtail, Giant [9, 16]: 0; Plant response rating, Foxtail, Giant [9, 17]: 0; Plant response rating, Kochia (kochia (Kochia scoparia); [16]): 0; Plant response rating, Kochia (kochia (Kochia scoparia); [17]): 0; Plant response rating, Ryegrass, Italian [10, 16]: 0; Plant response rating, Ryegrass, Italian [10, 17]: 0; Plant response rating, Corn (corn (Zea mays); [16]): 0; Plant response rating, Wheat [11, 16]: 0
Cn1ccnc1-c1ccccc1Oc1ncc(Br)cn1 [Compound 152] | 0 | 0 | 0 | 0 | 0 | 0 | 0 | 0 | 0 | 0 | 0 | 0 | 0 | 0 | 0 | 0 | 0 | 0 | 0 | 0 | Plant response rating, Blackgrass [4, 16]: 0; Plant response rating, Galium [5, 16]: 0; Plant response rating, Pigweed [6, 16]: 0; Plant response rating, Pigweed [6, 17]: 0; Plant response rating, Barnyardgrass [7, 16]: 0; Plant response rating, Barnyardgrass [7, 17]: 0; Plant response rating, Ragweed [8, 16]: 0; Plant response rating, Ragweed [8, 17]: 0; Plant response rating, Foxtail, Giant [9, 16]: 0; Plant response rating, Foxtail, Giant [9, 17]: 0; Plant response rating, Kochia (kochia (Kochia scoparia); [16]): 0; Plant response rating, Kochia (kochia (Kochia scoparia); [17]): 0; Plant response rating, Ryegrass, Italian [10, 16]: 0; Plant response rating, Ryegrass, Italian [10, 17]: 0; Plant response rating, Corn (corn (Zea mays); [16]): 0; Plant response rating, Wheat [11, 16]: 0
